The structures appear in SMILES notation.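 Cells were grown in 96-well plates and exposed to each compound for 48 hours at five concentrations; endpoints were interpolated linearly between bracketing concentrations, or set to the highest concentration if not reached. GI50 = concentration required for 50% inhibition of growth.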 Active and inactive are the calls of the source. Cut-off read from the data, not from the text of the source: active = GI50 up to about 1.1 µM and inactive = higher.

Among the test systems are 786-0; CCRF-CEM; HCT-15; HOP-62; KM12; MOLT-4; NCI-H460; RXF 393; SF-539; SK-MEL-28; SK-MEL-5; U-251; UACC-62; UO-31; M14; SR.
Common to all, as to assay: NCI tumour cell line growth inhibition, 48 h

Regarding `O=C(/C=C/c1ccccc1O)c1ccccc1O`, the GI50 in the test with 786-0 was > 100 µM (inactive); in the test on CCRF-CEM, 5.74 µM (inactive); in the test with HCT-15 it was 35.9 µM; in the test with HOP-62, > 100 µM (inactive); with KM12 it was > 100 µM (inactive); with MOLT-4, 18.7 µM (inactive). Besides, the GI50 with NCI-H460, in the test with RXF 393, in the test with SF-539, in the test with SK-MEL-28, in the test on SK-MEL-5 and with U-251 was > 100 µM (inactive) throughout. Further, the GI50 in the test with UACC-62 and with UO-31 was > 100 µM (inactive) each time.

Regarding `COC(=O)C[C@H]1CCC2(OCCO2)[C@]1(C)C(=O)OC`, the GI50 in the test with 786-0 is > 100 µM (inactive); in the test with CCRF-CEM, > 100 µM (inactive); in the test with HCT-15 it was above 100 µM; in the test on HOP-62 it was > 100 µM (inactive); in the test with KM12, > 100 µM (inactive); in the test on M14, > 100 µM (inactive). In addition, the GI50 in the test with MOLT-4, in the test on NCI-H460, with RXF 393, in the test on SF-539, in the test on SK-MEL-28 and in the test on SK-MEL-5 was > 100 µM (inactive) in each case. Further, the GI50 with U-251, with UACC-62 and with UO-31 was > 100 µM (inactive) in each case.

On to `CC(C)(CN1CCCCC1)C(=O)/C=C/c1ccc(Br)cc1`, for which the GI50 in the test on 786-0 was 2.15 µM (inactive); with CCRF-CEM, 2.77 µM (inactive); with HOP-62 it was 3.85 µM (inactive); with KM12, 3 µM (inactive); in the test with M14, 2.29 µM (inactive); in the test on MOLT-4, 2.28 µM (inactive). Also, the GI50 was 1.35 µM (inactive) with RXF 393; 2.09 µM (inactive) in the test on SF-539; 3.99 µM (inactive) with SK-MEL-28; 4.67 µM (inactive) in the test on SK-MEL-5; 2.45 µM (inactive) in the test with SR; 2.65 µM (inactive) in the test with U-251. For the same molecule, the GI50 in the test with UACC-62 is 6.56 µM (inactive).

Regarding `COc1ccc(NC(=O)/C(Cc2nc3ccccc3nc2O)=N\O)c(OC)c1`, the GI50 in the test on 786-0 is > 100 µM (inactive); in the test with CCRF-CEM it was > 100 µM (inactive); with HCT-15 it was above 100 µM; in the test on HOP-62, > 100 µM (inactive); with KM12 it was > 100 µM (inactive); with M14, > 100 µM (inactive). Further, the GI50 with NCI-H460, in the test on RXF 393, in the test with SF-539, with SK-MEL-28, in the test with SK-MEL-5 and with SR was > 100 µM (inactive) throughout. Also, the GI50 in the test on U-251, with UACC-62 and with UO-31 was > 100 µM (inactive) throughout.

Consider `CC1(C)OC2C(CCP(=O)(O)O)OC(c3nc(C(N)=O)cs3)C2O1` (stereo not drawn), for which the GI50 in the test on 786-0 was > 100 µM (inactive); in the test with CCRF-CEM, > 100 µM (inactive); with HCT-15 it was above 100 µM; with KM12 it was > 100 µM (inactive); in the test on M14 it was > 100 µM (inactive); in the test on MOLT-4 it was > 100 µM (inactive). Further, the GI50 in the test with NCI-H460, in the test with RXF 393, in the test with SK-MEL-28, in the test with U-251, in the test on UACC-62 and with UO-31 was > 100 µM (inactive) throughout.

Turning to `C[C@]12CC[C@H](OC(=O)Cc3ccc(N(CCCl)CCCl)cc3)CC1CC[C@@H]1C2CC[C@]2(C)NC(=O)CCC12` (stereo partly drawn), the GI50 is 11.5 µM (inactive) in the test with 786-0; 3.54 µM (inactive) with CCRF-CEM; 13.9 µM in the test on HCT-15; > 10 µM (inactive) in the test with HOP-62; 11 µM (inactive) with KM12; 13.2 µM (inactive) in the test with M14. Further, the GI50 is 3.08 µM (inactive) in the test with MOLT-4; 5.16 µM (inactive) in the test with NCI-H460; 7.74 µM (inactive) in the test on RXF 393; 3.5 µM (inactive) in the test on SF-539; 15 µM (inactive) with SK-MEL-28; 15.6 µM (inactive) in the test with SK-MEL-5. For the same molecule, the results for the GI50 in the test with U-251, in the test on UACC-62 and in the test on UO-31 were 11.2 µM (inactive), 6.68 µM (inactive) and 29.3 µM (inactive), respectively.

With `C=C(CS(=O)(=O)c1ccccc1)C(=O)OCC`, the GI50 in the test with 786-0 was 17.3 µM (inactive); in the test with CCRF-CEM, 2.77 µM (inactive); with HCT-15 it was 12.6 µM; in the test with KM12 it was 16.1 µM (inactive); with M14 it was 11.6 µM (inactive); with MOLT-4, 2.81 µM (inactive). For the same molecule, the GI50 with NCI-H460 is 18.7 µM (inactive); in the test on RXF 393, 11.7 µM (inactive); in the test with SF-539 it was 17.1 µM (inactive); in the test on SK-MEL-28 it was 15.1 µM (inactive); in the test with U-251, 16.9 µM (inactive); in the test on UACC-62 it was 4.74 µM (inactive). Further, in the test with UO-31, the GI50 is 20 µM (inactive).

`O=C(Cc1ccccc1)NN1C(=O)C(Cl)C1c1cc(Br)ccc1O` (stereo not drawn): the GI50 in the test with 786-0 was 5.89 µM (inactive); with CCRF-CEM, 0.755 µM (active); with HCT-15, 3.65 µM; in the test with HOP-62, 2.65 µM (inactive); with KM12 it was 9.48 µM (inactive); with M14, 4.34 µM (inactive). The GI50 is 1.04 µM (active) in the test on MOLT-4; 2.2 µM (inactive) in the test with NCI-H460; 19.1 µM (inactive) in the test on RXF 393; 3.94 µM (inactive) in the test on SK-MEL-28; 7.59 µM (inactive) in the test with SK-MEL-5; 1.56 µM (inactive) in the test with SR. Besides, the GI50 is 3.69 µM (inactive) with U-251, 4.15 µM (inactive) in the test with UACC-62 and 7.45 µM (inactive) in the test with UO-31.

In the case of `Cc1cc(Cl)cc2c1NC(=O)C2(O)CC(=O)c1ccc(F)cc1` (stereo not drawn), the GI50 in the test on 786-0 was 27 µM (inactive); in the test with HCT-15 it was 74.1 µM; in the test on HOP-62, > 100 µM (inactive); with KM12, > 100 µM (inactive); in the test with M14, 88.5 µM (inactive); in the test on NCI-H460, 83.8 µM (inactive). The GI50 was 19.7 µM (inactive) in the test with RXF 393; 40.9 µM (inactive) in the test on SF-539; 37.2 µM (inactive) in the test on SK-MEL-28; 39 µM (inactive) with U-251; 20 µM (inactive) in the test on UACC-62; 47.6 µM (inactive) in the test on UO-31.

On to `O=C1CC2CCCC23CC2(CCN13)OCCO2` (stereo not drawn), for which the GI50 in the test with 786-0, in the test on CCRF-CEM, in the test on HOP-62, with KM12, with M14 and in the test with MOLT-4 was > 100 µM (inactive) each time. The GI50 in the test on NCI-H460, with RXF 393, with SF-539, in the test on SK-MEL-28, with SK-MEL-5 and in the test with SR was > 100 µM (inactive) each time. The GI50 with U-251, in the test on UACC-62 and in the test on UO-31 was > 100 µM (inactive) in each case.

Take `Oc1ccccc1-c1cnnc(-c2ccccc2O)c1`: the GI50 in the test on 786-0 was 17.9 µM (inactive); in the test with CCRF-CEM, 13.4 µM (inactive); with M14, 22.2 µM (inactive); in the test on MOLT-4, 18.1 µM (inactive); in the test with RXF 393 it was 20.3 µM (inactive); in the test on SF-539, 33.9 µM (inactive). Further, the GI50 in the test on SK-MEL-28 was 35.6 µM (inactive); in the test with SR it was 19 µM (inactive); with UACC-62 it was 17.5 µM (inactive); in the test with UO-31, 19.7 µM (inactive).

With `CCOP(=O)(OCC)/C(C#N)=C\c1ccsc1`, the GI50 in the test with 786-0 was > 100 µM (inactive); in the test with HCT-15, above 100 µM; in the test on HOP-62 it was > 100 µM (inactive); with KM12, > 100 µM (inactive); in the test on M14, > 100 µM (inactive); in the test on MOLT-4, > 100 µM (inactive). Besides, the GI50 with NCI-H460, in the test with RXF 393, in the test with SF-539, in the test on SK-MEL-28, in the test on SK-MEL-5 and in the test with U-251 was > 100 µM (inactive) throughout. For the same molecule, the GI50 with UACC-62 and in the test on UO-31 was > 100 µM (inactive) in each case.

`CC(=O)O[C@H]1C(=O)[C@@]2(C)C(C(OC(=O)c3ccccc3)C3[C@@H](O)C(OC(=O)[C@@H](O)[C@H](NC(=O)c4ccccc4)c4ccc(C(F)(F)F)cc4)C(C)=C1C3(C)C)[C@]1(OC(C)=O)CO[C@@H]1C[C@@H]2O` (stereo partly drawn): the GI50 with 786-0 was > 25 µM (inactive); with CCRF-CEM, 18.2 µM (inactive); with HCT-15, above 25 µM; with HOP-62, > 25 µM (inactive); in the test on M14, > 25 µM (inactive); in the test on MOLT-4, 11 µM (inactive). For the same molecule, the GI50 in the test on NCI-H460 is 23.9 µM (inactive); in the test with RXF 393, 14.3 µM (inactive); with SF-539 it was 9.98 µM (inactive); in the test on SK-MEL-28 it was > 25 µM (inactive); in the test with SK-MEL-5, 8.26 µM (inactive); in the test on SR, 8.43 µM (inactive). Further, the GI50 was 13.3 µM (inactive) in the test with U-251, 19.2 µM (inactive) with UACC-62 and 18.1 µM (inactive) in the test on UO-31.

As to `CCOC1=C2C(C)(CCC3[C@@]4(C)C=CC(=O)C(C)(C)C4CC(O)[C@@]23C)C(c2ccoc2)C1=O` (stereo partly drawn), the GI50 with 786-0 is 15.3 µM (inactive); in the test on CCRF-CEM it was 7.93 µM (inactive); in the test with HCT-15, 11.7 µM; with HOP-62 it was 20.5 µM (inactive); in the test on KM12, 15.2 µM (inactive); in the test on M14, 21.8 µM (inactive). Further, the GI50 in the test with MOLT-4 was 7 µM (inactive); in the test on NCI-H460, 13.7 µM (inactive); in the test on RXF 393, 16.1 µM (inactive); in the test on SF-539, 17.6 µM (inactive); in the test on SK-MEL-28, 15.6 µM (inactive); with SK-MEL-5 it was 15.2 µM (inactive). Also, the GI50 is 18 µM (inactive) with U-251, 18.7 µM (inactive) in the test with UACC-62 and 14.5 µM (inactive) in the test with UO-31.

For the origin of these results see ChEMBL document CHEMBL1201862, “PubChem BioAssay data set” (2004).
